Test results as given in patent EP0164699A2, “1,2-Beta-methylene-4-androstene and 4,6-androstadiene-3,17-dione” (SCHERING AKTIENGESELLSCHAFT, priority 1984, dated 1985).

System: Aromatase
Experiment: Aromatase inhibition: reduction of PMSG-stimulated estradiol secretion in rats (serum estradiol by radioimmunoassay)
Assay type: in vivo, Ratten
Conditions: serum of 20-day-old female rats pretreated 7 times with 100 I.U. PMSG s.c.; test substance injected 1 h before and 8 h after last PMSG; killed 24 h after last PMSG; comparison with substance A
Excerpt: Die durch PMSG (Pregnant Mare's Serum Gonadotropin) vermehrte Sekretion von Östradiol kann durch Applikation von Aromatasehemmern vermindert werden.
Versuch und Auswertung wurden wie folgt durchgeführt: • 20 Tage alte weibliche Ratten wurden alle 2 Tage insgesamt 7 mal mit 100 I.U. PMSG subcutan vorbehandelt. Eine Stunde vor und 8 Stunden nach der letzten PMSG-Applikation (d12) erhielten die Tiere die Testsubstanz durch Injektion. 24 Stunden nach der letzten PMSG-Applikation wurden die Tiere getötet. Im Serum wurde dann Östradiol radioimmunologisch bestimmt. In der folgenden Tabelle wird die Östradiolkonzentration in nMol/1 und die Standardabweichung angegeben. [formula]

Compound	Östradiolkonzentration
C[C@]12CC[C@H]3[C@@H](CCC4=CC(=O)[C@H]5CC5[C@@]43C)[C@@H]1CCC2=O (some centres unmarked) [B, 1,2ß-Methylen-4-androsten-3,17-dion]	einen stärkeren Abfall der Östradiolkonzentration bewirken als die bekannte Substanz A
C[C@]12CC[C@H]3[C@@H](C=CC4=CC(=O)[C@H]5CC5[C@@]43C)[C@@H]1CCC2=O (some centres unmarked) [C, 1,2ß-Methylen-androsta-4,6-dien-3,17-dion]	einen stärkeren Abfall der Östradiolkonzentration bewirken als die bekannte Substanz A
